Series [1] can be described thus: Pharmacokinetic study in rabbit after nasal or IV administration (plasma MPZ and AMPZ by HPLC with fluorescence detection). The series is classed as in vivo, lapin. The method, then: Le passage par voie nasale de la métopimazine a été caractérisé chez l'animal dans un modèle de référence qu'est le lapin. Les lapins utilisés étaient des femelles de race néozélandaises provenant de chez Charles River (poids 3,5 kg). La formulation testée chez le lapin a été la suivante: • Formule 1 : • Métopimazine : 10mg • NaCl : QSP 300mOsm • Tampon Citrate : QSP pH 5.5 • Eau : QSP 1ml
La posologie administrée au lapin a été calculée à partir de la dose pédiatrique soit 1 mg / kg / jour en 3 prises. Le poids des lapins étant de 3,5 kg, la dose par prise est d'environ 1 mg. La dose est donc administrée par instillation de 50 µl dans chaque narine d'une solution à 10 mg/ml.
Avant toute manipulation, le lapin est placé dans des cages de contention. Un cathéter est introduit sur chaque oreille du lapin au niveau de la veine marginale et d'une artère. Le cathéter veineux a permis d'injecter le soluté de remplissage (sérum physiologique) et le cathéter artériel a servi aux différents prélèvements sanguins tout au long de la manipulation. Les prélèvements ont été réalisés à temps réguliers : 0, 5, 10, 20, 30, 60, 120, 240 et 480 minutes. La préparation est administrée aux lapins en position supinale. Les lapins sont être maintenus dans cette position au moins 5 minutes après administration pour assurer le contact entre l'épithélium et la formulation. La solution nasale est administrée par instillation d'un volume de 50µL avec une micropipette dans chaque narine du lapin. Le volume du prélèvement est d'environ 3 mL. Après 2 h, les lapins sont placés dans leur cage avec un libre accès à la nourriture et à l'eau dans l'attente des prélèvements suivants. Le dosage est réalisé par CLHP avec détection par fluorescence en utilisant la méthode décrite par Angelo et al. J of Chrom, 496; 472-477, (1989). L'appareil de dosage est constitué d'une pompe Jasco, d'un injecteur Kontron et d'un détecteur de fluorescence Varian Prostar.
L'étude pharmacocinétique a été conduite sur le logiciel PK Solutions 2.
La formule 1 a été comparée à la voie IV. La métopimazine a été administrée dans la veine marginale de l'oreille. Les concentrations plasmatiques de la MPZ et l'AMPZ sont représentées également dans la figure 2.
Selon le même protocole, une autre formulation a été testée. • Formule 2 : • Métopimazine : 10mg • DMβCD : 21mg • NaCl : QSP 300mOsm • Tampon Citrate : QSP pH 5.5 • Eau : QSP 1ml

Series [2] is described as follows: Local tolerance study in rabbit, nasal administration for 7 days, histology of the anatomical piece. The series is classed as in vivo, lapin. Set-up: key: Non renseigné : absent ou négligeable; +: faible intensité; ++: Intensité modérée; +++: Intensité marquée. The note with it: 7 days of Formule 1 200µLx3/J. The method, then: La tolérance a été étudiée chez le lapin après administration de 2mg de Formule 1 X3/j pendant 7 jours. Chaque lapin était son propre contrôle, puisqu'une narine recevait le Vogalène pendant que la seconde recevait une solution de sérum physiologique. Après l'exposition, les lapins sont sacrifiés afin de récupérer et d'étudier la pièce anatomique.

The conditions of series [3]: hepatic first-pass effect, cited from earlier work.
Where [4] appears, read: MPZ in plasma after IV administration of métopimazine, lapin, n=2.
[5] abbreviates: sampling 14h after last administration, one rabbit and one sample (A-D).
Setting [6] is: sampling 70h after last administration, each column = one rabbit and one sample (A-C).

Like-named read-outs stand apart in the source and are kept apart here.

As usually defined, the Cmax is the peak of the concentration-time curve. In general, half-life refers to the time needed for the level to fall by half in the phase considered.

Regarding `CS(=O)(=O)c1ccc2c(c1)N(CCCN1CCC(C(N)=O)CC1)c1ccccc1S2` [MPZ, métopimazine], the t max in series [1] (MPZ in plasma after IV administration of métopimazine (veine marginale de l'oreille), lapin, n=2, read-out: t max (converted)) was 5 min. In series [1] (setting [4]), the Cmax worked out at 17.4 ng/mL and the half-life worked out at 72 min. Besides, in series [1] (MPZ in plasma after IV administration of métopimazine, lapin, n=2, read-out: AUC (converted)), the AUC was 23.4 ng·h/mL. The t max in series [1] (MPZ in plasma after nasal administration, 50 µl in each nostril of a 10 mg/ml solution (about 1 mg), lapin, n=2, read-out: t max (converted)) is 5 min. The concentration in series [1] (MPZ in plasma after nasal administration, about 1 mg, lapin, n=2) peaked (Cmax) at 9.2 ng/mL. Moreover, the bioavailability in series [1] (plasma, 1 mg, lapin, nasal route compared with IV, b45 = formulation tested (Formule 1), b50 = Formule 2, read-out: biodisponibilité de la MPZ par voie nasale) was roughly 50%. Further, in series [2] (setting [5]), the “Hyperplasie des cellules de réserve” value is reported as “+”, the “Inflammation dans le chorion” value is reported as “+” and the “Perte des cellules caliciformes” value was “+”. In series [2] (setting [6]), the “Hyperplasie des cellules de réserve” value was “+ and ++”; the “Inflammation épithéliale” value is “+ and + avec eosinophiles et lymphocytes”; the “Perte des cellules caliciformes” value is “+++ and + and ++”; the Perte des cils entry was “+++ and + and ++”. The “biodisponibilité par voie orale” value in series [3] (oral route) is on record as 22,3%. Moreover, in series [3] (rectal route), the “biodisponibilité par voie rectale” value is reported as 19,5%.
In turn, `CS(=O)(=O)c1ccc2c(c1)N(CCCN1CCC(C(=O)O)CC1)c1ccccc1S2` [AMPZ, acide de métopimazine] showed a t max in series [1] (in vivo) of 10 min. Moreover, in series [1] (in vivo, iv), the AUC is 5765 ng/mL/min, the C max was found to be 40 ng/mL, the T1/2 stood at 105 min and the t max is reported as 20 min.

The record behind these values is patent publication EP2581085A1, “Pharmaceutical composition for nasal administration of metopimazine” (priority 2011, dated 2013).
